The text below walks through data of US9499550B2 (BRISTOL-MYERS SQUIBB COMPANY, priority 2012, dated 2016).

As usually defined, the EC50 is the concentration that produces a half-maximal response.

In experiment [1] the test system is HCV genotype 1a (H77 strain) replicon in HUH-7 cells. Nature of the experiment: HCV replicon luciferase reporter assay, genotype 1a. Format: cell-based. Particulars: Hepatitis C virus, Huh-7, 72 h, HCV genotype 1a replicon luciferase, 3 days incubation. The procedure, abridged: (§1)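 Replicon inhibition for both genotypes was measured as Renilla luciferase signal (EnduRen, 7.5 μM final, 2 h) after 3-day, 37° C exposure of replicon-bearing HUH-7 cells in 4% FCS DMEM, 0.5% DMSO. The 1b construct carries S1179I; the 1a H77 construct carries P1496L and S2204I. Twenty-point, 3-fold dilutions were fitted four-parametrically for EC50, and CC50 was taken from multiplexed Cell Titer-Blue.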
Background: Replicon systems follow genome replication, usually without infectious particles.

Experiment [2] has as its system HCV genotype 1b (Con1) replicon in HUH-7 cells. Nature of the experiment: HCV replicon luciferase reporter assay, genotype 1b. Format: cell-based. The note with it: Hepatitis C virus, Huh-7, 72 h, HCV genotype 1b replicon luciferase, 3 days incubation. In a few lines:
as §1

Where two headings read alike, the source gives them in different places. Some results are limits rather than exact numbers.

Regarding `C[C@H]1CC/C=C\[C@@H]2C[C@@]2(C(=O)NS(=O)(=O)C2CC2)NC(=O)[C@@H]2C[C@@H](Oc3nccc4c5c(ccc34)N(C)CCO5)CN2C(=O)[C@@H](NC(=O)OC(C)(C)C(C)(F)F)[C@H](C)C1` [Compound 5281, 3,3-difluoro-2-methylbutan-2-yl((2R,6S,7R,9S,13aS,14aR,16aS,Z)-14a-((cyclopropylsulfonyl)carbamoyl)-7,9-dimethyl-2-((4-methyl-3,4-dihydro-2H-[1,4]oxazino[2,3-f]isoquinolin-7-yl)oxy)-5,16-dioxo-1,2,3,5,6,7,8,9,10,11,13a,14,14a,15,16,16a-hexadecahydrocyclopropa[e]pyrrolo[1,2-a][1,4]diazacyclopentadecin-6-yl)carbamate], the EC50 in experiment [1] (read-out: LE_1a (EC50, range)) was less than 5.46 nM; in experiment [2] (read-out: LE_1b (EC50, range)), less than 5.46 nM.
Consider `C[C@@H]1CC/C=C\[C@@H]2C[C@@]2(C(=O)NS(=O)(=O)C2CC2)NC(=O)[C@@H]2C[C@@H](Oc3nccc4c5c(ccc34)N(C)CCO5)CN2C(=O)[C@@H](NC(=O)OC(C)(C)C(C)(F)F)[C@H](C)C1` [Compound 5282, 3,3-difluoro-2-methylbutan-2-yl((2R,6S,7R,9R,13aS,14aR,16aS,Z)-14a-((cyclopropylsulfonyl)carbamoyl)-7,9-dimethyl-2-((4-methyl-3,4-dihydro-2H-[1,4]oxazino[2,3-f]isoquinolin-7-yl)oxy)-5,16-dioxo-1,2,3,5,6,7,8,9,10,11,13a,14,14a,15,16,16a-hexadecahydrocyclopropa[e]pyrrolo[1,2-a][1,4]diazacyclopentadecin-6-yl)carbamate], for which the EC50 in experiment [1] (read-out: LE_1a (EC50, range)) was less than 5.46 nM; in experiment [2] (read-out: LE_1b (EC50, range)), less than 5.46 nM.
On to `C[C@H]1CC/C=C\[C@@H]2C[C@@]2(C(=O)NS(=O)(=O)C2CC2)NC(=O)[C@@H]2C[C@@H](Oc3nccc4c5c(ccc34)N(C)CCO5)CN2C(=O)[C@@H](NC(=O)NC(C)(C)C)[C@H](C)C1` [Compound 5283, (2R,6S,7R,9S,13aS,14aR,16aS,Z)-6-(3-(tert-butyl)ureido)-N-(cyclopropylsulfonyl)-7,9-dimethyl-2-((4-methyl-3,4-dihydro-2H-[1,4]oxazino[2,3-f]isoquinolin-7-yl)oxy)-5,16-dioxo-1,2,3,5,6,7,8,9,10,11,13a,14,14a,15,16,16a-hexadecahydrocyclopropa[e]pyrrolo[1,2-a][1,4]diazacyclopentadecine-14a-carboxamide], for which the EC50 in experiment [1] (read-out: LE_1a (EC50)) is 4.82 nM; in experiment [1] (read-out: LE_1a (EC50, range)) it was less than 5.46 nM; in experiment [2] (read-out: LE_1b (EC50)), 3.12 nM; in experiment [2] (read-out: LE_1b (EC50, range)) it was less than 5.46 nM.
With `C[C@@H]1CC/C=C\[C@@H]2C[C@@]2(C(=O)NS(=O)(=O)C2CC2)NC(=O)[C@@H]2C[C@@H](Oc3nccc4c5c(ccc34)N(C)CCO5)CN2C(=O)[C@@H](NC(=O)NC(C)(C)C)[C@H](C)C1` [Compound 5284, (2R,6S,7R,9R,13aS,14aR,16aS,Z)-6-(3-(tert-butyl)ureido)-N-(cyclopropylsulfonyl)-7,9-dimethyl-2-((4-methyl-3,4-dihydro-2H-[1,4]oxazino[2,3-f]isoquinolin-7-yl)oxy)-5,16-dioxo-1,2,3,5,6,7,8,9,10,11,13a,14,14a,15,16,16a-hexadecahydrocyclopropa[e]pyrrolo[1,2-a][1,4]diazacyclopentadecine-14a-carboxamide], the EC50 in experiment [1] (read-out: LE_1a (EC50, range)) is less than 5.46 nM; in experiment [2] (read-out: LE_1b (EC50, range)) it was less than 5.46 nM.
`[2H]C([2H])([2H])C(C)(OC(=O)N[C@@H]1C(=O)N2C[C@H](Oc3nccc4c5c(ccc34)N(C)CCO5)C[C@H]2C(=O)N[C@]2(C(=O)NS(=O)(=O)C3CC3)C[C@H]2/C=C\CC[C@H](C)C[C@H]1C)C([2H])([2H])[2H]` [Compound 5285, 1,1,1,3,3,3-hexadeutero-2-methylpropan-2-yl((2R,6S,7R,9S,13aS,14aR,16aS,Z)-14a-((cyclopropylsulfonyl)carbamoyl)-7,9-dimethyl-2-((4-methyl-3,4-dihydro-2H-[1,4]oxazino[2,3-f]isoquinolin-7-yl)oxy)-5,16-dioxo-1,2,3,5,6,7,8,9,10,11,13a,14,14a,15,16,16a-hexadecahydrocyclopropa[e]pyrrolo[1,2-a][1,4]diazacyclopentadecin-6-yl)carbamate]: the EC50 is 4.82 to 103 nM in experiment [1] (read-out: LE_1a (EC50, range)) and less than 5.46 nM in experiment [2] (read-out: LE_1b (EC50, range)).
As to `[2H]C([2H])([2H])C(C)(OC(=O)N[C@@H]1C(=O)N2C[C@H](Oc3nccc4c5c(ccc34)N(C)CCO5)C[C@H]2C(=O)N[C@]2(C(=O)NS(=O)(=O)C3CC3)C[C@H]2/C=C\CC[C@@H](C)C[C@H]1C)C([2H])([2H])[2H]` [Compound 5286, 1,1,1,3,3,3-hexadeutero-2-methylpropan-2-yl((2R,6S,7R,9R,13aS,14aR,16aS,Z)-14a-((cyclopropylsulfonyl)carbamoyl)-7,9-dimethyl-2-((4-methyl-3,4-dihydro-2H-[1,4]oxazino[2,3-f]isoquinolin-7-yl)oxy)-5,16-dioxo-1,2,3,5,6,7,8,9,10,11,13a,14,14a,15,16,16a-hexadecahydrocyclopropa[e]pyrrolo[1,2-a][1,4]diazacyclopentadecin-6-yl)carbamate], the EC50 in experiment [1] (read-out: LE_1a (EC50, range)) is less than 5.46 nM; in experiment [2] (read-out: LE_1b (EC50, range)), less than 5.46 nM.
In the case of `[2H]C([2H])([2H])C(OC(=O)N[C@@H]1C(=O)N2C[C@H](Oc3nccc4c5c(ccc34)N(C)CCO5)C[C@H]2C(=O)N[C@]2(C(=O)NS(=O)(=O)C3CC3)C[C@H]2/C=C\CC[C@H](C)C[C@H]1C)(C([2H])([2H])[2H])C([2H])([2H])[2H]` [Compound 5287, 1,1,1,3,3,3-hexadeutero-2-(trideuteromethyl)propan-2-yl((2R,6S,7R,9S,13aS,14aR,16aS,Z)-14a-((cyclopropylsulfonyl)carbamoyl)-7,9-dimethyl-2-((4-methyl-3,4-dihydro-2H-[1,4]oxazino[2,3-f]isoquinolin-7-yl)oxy)-5,16-dioxo-1,2,3,5,6,7,8,9,10,11,13a,14,14a,15,16,16a-hexadecahydrocyclopropa[e]pyrrolo[1,2-a][1,4]diazacyclopentadecin-6-yl)carbamate], the EC50 in experiment [1] (read-out: LE_1a (EC50, range)) was less than 5.46 nM; in experiment [2] (read-out: LE_1b (EC50, range)), less than 5.46 nM.
On to `[2H]C([2H])([2H])C(OC(=O)N[C@@H]1C(=O)N2C[C@H](Oc3nccc4c5c(ccc34)N(C)CCO5)C[C@H]2C(=O)N[C@]2(C(=O)NS(=O)(=O)C3CC3)C[C@H]2/C=C\CC[C@@H](C)C[C@H]1C)(C([2H])([2H])[2H])C([2H])([2H])[2H]` [Compound 5288, 1,1,1,3,3,3-hexadeutero-2-(trideuteromethyl)propan-2-yl((2R,6S,7R,9R,13aS,14aR,16aS,Z)-14a-((cyclopropylsulfonyl)carbamoyl)-7,9-dimethyl-2-((4-methyl-3,4-dihydro-2H-[1,4]oxazino[2,3-f]isoquinolin-7-yl)oxy)-5,16-dioxo-1,2,3,5,6,7,8,9,10,11,13a,14,14a,15,16,16a-hexadecahydrocyclopropa[e]pyrrolo[1,2-a][1,4]diazacyclopentadecin-6-yl)carbamate], for which the EC50 in experiment [1] (read-out: LE_1a (EC50, range)) is less than 5.46 nM; in experiment [2] (read-out: LE_1b (EC50, range)), less than 5.46 nM.
On to `C[C@H]1CC/C=C\[C@@H]2C[C@@]2(C(=O)NS(=O)(=O)C2CC2)NC(=O)[C@@H]2C[C@@H](Oc3nccc4c5c(ccc34)N(C)CCO5)CN2C(=O)[C@@H](NC(=O)c2ccc(N(C)C)cc2)[C@H](C)C1` [Compound 5289, (2R,6S,7R,9S,13aS,14aR,16aS,Z)—N-(cyclopropylsulfonyl)-6-(4-(dimethylamino)benzamido)-7,9-dimethyl-2-((4-methyl-3,4-dihydro-2H-[1,4]oxazino[2,3-f]isoquinolin-7-yl)oxy)-5,16-dioxo-1,2,3,5,6,7,8,9,10,11,13a,14,14a,15,16,16a-hexadecahydrocyclopropa[e]pyrrolo[1,2-a][1,4]diazacyclopentadecine-14a-carboxamide], for which the EC50 is 4.82 to 103 nM in experiment [1] (read-out: LE_1a (EC50, range)) and less than 5.46 nM in experiment [2] (read-out: LE_1b (EC50, range)).
For `C[C@@H]1CC/C=C\[C@@H]2C[C@@]2(C(=O)NS(=O)(=O)C2CC2)NC(=O)[C@@H]2C[C@@H](Oc3nccc4c5c(ccc34)N(C)CCO5)CN2C(=O)[C@@H](NC(=O)c2ccc(N(C)C)cc2)[C@H](C)C1` [Compound 5290, (2R,6S,7R,9R,13aS,14aR,16aS,Z)—N-(cyclopropylsulfonyl)-6-(4-(dimethylamino)benzamido)-7,9-dimethyl-2-((4-methyl-3,4-dihydro-2H-[1,4]oxazino[2,3-f]isoquinolin-7-yl)oxy)-5,16-dioxo-1,2,3,5,6,7,8,9,10,11,13a,14,14a,15,16,16a-hexadecahydrocyclopropa[e]pyrrolo[1,2-a][1,4]diazacyclopentadecine-14a-carboxamide], the EC50 was 1.25 nM in experiment [1] (read-out: LE_1a (EC50)); less than 5.46 nM in experiment [1] (read-out: LE_1a (EC50, range)); 0.64 nM in experiment [2] (read-out: LE_1b (EC50)); less than 5.46 nM in experiment [2] (read-out: LE_1b (EC50, range)).
Consider `C[C@H]1CC/C=C\[C@@H]2C[C@@]2(C(=O)NS(=O)(=O)C2CC2)NC(=O)[C@@H]2C[C@@H](Oc3nccc4c5c(ccc34)N(C)CCO5)CN2C(=O)[C@@H](NC(=O)O[C@@H]2C[C@@H]3C[C@@H]3C2)[C@H](C)C1` [Compound 5291, (1R,3r,5 S)-bicyclo[3.1.0]hexan-3-yl((2R,6S,7R,9S,13aS,14aR,16aS,Z)-14a-((cyclopropylsulfonyl)carbamoyl)-7,9-dimethyl-2-((4-methyl-3,4-dihydro-2H-[1,4]oxazino[2,3-f]isoquinolin-7-yl)oxy)-5,16-dioxo-1,2,3,5,6,7,8,9,10,11,13a,14,14a,15,16,16a-hexadecahydrocyclopropa[e]pyrrolo[1,2-a][1,4]diazacyclopentadecin-6-yl)carbamate], for which the EC50 in experiment [1] (read-out: LE_1a (EC50, range)) was less than 5.46 nM; in experiment [2] (read-out: LE_1b (EC50, range)), less than 5.46 nM.
